The record followed here is patent US20260217652A1, “PHENYL-SUBSTITUTED HETEROARYL COMPOUND AND PHARMACEUTICAL COMPOSITION COMPRISING SAME, PREPARATION METHOD THEREFOR AND USE THEREOF” (SHANGHAI MEIYUE BIOTECH DEVELOPMENT CO., LTD., priority 2023, published 2026).

Each structure is given as a SMILES string. Read-outs that look alike come from different tables or passages of the source.

The target of one data set is T1, p38 MAPK/MK2 (Homo sapiens, UniProt Q16539).
T1 construct: purchased Carna (p38α); Abcam (MK2) 04-152; 79910
As to the kind of experiment: In vitro activity assay of p38 MAPK/MK2 (Z-LYTE kinase assay kit). The format is biochemical. The following applies: active p38α, inactive MK2, Ser/Thr 4; 1-hour reaction at 20° C. A digest of the protocol: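 FRET-based Z-LYTE assay; compound tested from […] top concentration, 5-fold serial dilution, 8 points, duplicate wells, 1% DMSO. Kinase reaction 1 h at 20° C, then development reagent 1 h at room temperature; fluorescence read at Ex 400/Em 445 and 520 nm. IC50 from concentration-effect curve fit.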

The next data set concerns the target T2, p38 MAPK/ATF2 (Homo sapiens, UniProt Q16539).
T2 construct: purchased Carna Biosciences (p38α); Sino Biological (ATF2) 04-152; 11599-H20B
As to the kind of experiment: In vitro activity assay of p38 MAPK/ATF2 (HTRF). It counts as biochemical. The following applies: p38α, Human ATF2 Protein, ATP; 35 min at 20° C. Here is the method: The inhibitory effect of the compound on p38a-catalyzed ATF2 was evaluated by the HTRF method. The test compound was dissolved in DMSO to obtain a 10 mM stock solution and stored at −20° C. for future use. The initial concentration of the compound was 10 μM, with 0.25% DMSO, 5-fold serial dilution, 8 concentrations, and duplicate wells. The reaction buffer, consisting of 40 mM Tris pH 7.5, 20 mM MgCl2, 0.1 mg/mL BSA, and 50 μM DTT, was used to prepare 3.5×p38α (MAPK14, Carna Biosciences, 04-152) protein working solution, 3.5×Human ATF2 Protein (Sino Biological, 11599-H20B) working solution, and 3.5×ATP working solution. The reaction was terminated with 10 mM EDTA. The final 14 μL reaction system was performed in a 96-well plate (cisbio, 66PL96025), containing 0.29 ng/μL p38a, […] Human ATF2 Protein, and 25 µM ATP. After reacting at 20° C. for 35 min, the pre-prepared antibody solution (cibio, 63ADK015PEG, Phospho-ATF2 Eu Cryptate antibody, Phospho-ATF2 d2 antibody, diluted 40-fold with Detection buffer) was added to each well and incubated overnight at room temperature. The samples were then measured using a microplate reader (HTRF compatible reader). The concentration-effect curve was fitted using GraphPad Prism 8 software, and the compound concentration resulting in 50% inhibition, IC50, was calculated.
A general note: In TR-FRET formats the signal depends on donor and acceptor labels being close together.

The target of another data set is T3, p38 MAPK/MK5 (Homo sapiens, UniProt Q16539).
T3 construct: purchased Carna (p38α); Abcam (MK5) 04-152; 217826
As to the kind of experiment: In vitro activity assay of p38 MAPK/MK5 (Z-LYTE kinase assay kit). It counts as biochemical. The following applies: active p38α, inactive MK5, Ser/Thr 4; 4-hour reaction at 20° C. Here is the method:
The inhibitory effect of the compound on p38 MAPK/MK5 was evaluated using the Z-LYTE kinase assay kit (Thermo, PV3177). The test compound was dissolved in DMSO to obtain a 10 mM stock solution and stored at −20° C. for future use. The initial concentration of the compound was […], with 1% DMSO, 5-fold serial dilution, 8 concentrations, and duplicate wells. […] After a 4-hour reaction at 20° C., Development Reagent A diluted 2048-fold was added to each well, followed by incubation at room temperature for 1 hour. The reaction was terminated by adding 5 µL of stop buffer, and the plate was read using a microplate reader (Ex. 400 nm, Em. 445 nm; Ex. 400 nm, Em. 520 nm). The concentration-effect curve was fitted using GraphPad Prism 8 software, and the compound concentration resulting in 50% inhibition, IC50, was calculated.

A short description of data set [1]: Pharmacokinetic evaluation in mice. The format is in vivo. The following applies: mouse, plasma; for AUC(0-t): read-out: Area under curve AUC0-24 h; for clearance: read-out: Clearance CL (converted); for half-life: read-out: Half-life T1/2 (converted); for C0: read-out: Initial concentration C0; for Vd: read-out: Volume of distribution Vd; for bioavailability: read-out: Bioavailability F %; for Cmax: read-out: Maximum concentration Cmax. On the procedure:
The compound was weighed and dissolved in a mixed solvent of DMAC: Solutol: PBS (1:1:8. After intravenous/gastric administration to mice, whole blood ([…]) was collected at 0.083, 0.25, 0.5, 1, 2, 4, 7, and 24 hours. The samples were anticoagulated with EDTA-K2, immediately centrifuged at 4000 rpm for 5 minutes at 4° C., and the supernatant was frozen in a −80° C. refrigerator. Plasma sample processing: The samples were precipitated with an internal standard-containing CH3CN precipitant, followed by centrifugation at 12700 rpm for 10 min. The supernatant was collected and analyzed by LC-MS/MS (AB Triple Quard 5500) to obtain the plasma drug concentration. The parameters were calculated using a non-compartmental model in Winnolin version 8.1.

For data set [2], the system named is TNF-α in human PBMC cells. As to the kind of experiment: In vitro TNF-α activity assay in human PBMC cell supernatant (LPS, ELISA). The format is cell-based. The following applies: Homo sapiens, PBMC, 24 h, LPS 100 ng/mL, read-out: p38 MAPK/TNF-α IC50. On the procedure: The inhibitory effect of the compound on TNF-α in the supernatant of human PBMC cells was evaluated using an ELISA detection kit (Beyotime, PI518). The test compound was dissolved in DMSO to obtain a 10 mM stock solution and stored at −20° C. for future use. The initial concentration of the compound was […], followed by 5-fold serial dilution to obtain 6 concentrations. Cells were plated in duplicate, and ELISA was performed in single wells. The final concentration of DMSO was 0.4%. Alternatively, the initial concentration of the compound, dilution factor, number of concentration gradients, and replicates could be adjusted based on the specific screening conditions.
Fresh human peripheral blood mononuclear cells (PBMCs) (Sailybio) were seeded at a density of 2×10^5 cells per well in a 96-well plate (Corning, 3599), with each well containing 100 μL of RPMI-1640 (Gibco #A1049101)+10% FBS (Gibco, 10099141C), and incubated overnight at 37° C. under 5% CO2. Test compounds were added to the 96-well culture plate at a volume of 25 μL per well. After 1 hour, 5 μL of LPS was added to achieve a final concentration of 100 ng/mL. No LPS and compound were added to the negative control wells, and no compound was added to the positive control wells. The mixture was further incubated for 24 hours at 37° C. under 5% CO2. Subsequently, the cell culture supernatant was collected by centrifugation at 500 rcf for 8 minutes. The concentration of TNF-α was measured according to the operation manual of the ELISA kit. The concentration-effect curve was fitted using GraphPad Prism 8 software, and the compound concentration resulting in 50% inhibition, IC50, was calculated.
A general note: An ELISA detects its analyte on a solid surface through an enzyme-linked reagent.

A short description of data set [3]: In vitro liver microsome stability, human. The format is in vitro ADME. The following applies: liver microsomes, 0.5 mg/mL microsomes, 1 μM compound, NADPH, 37° C., read-out: Human liver microsomes Half-life T1/2. Here is the method:
(§1) The reference compound used in this experiment was Ketanserin, and the final concentration of microsomes in the experimental system was 0.5 mg/mL. The PBS buffer was a 50 mM K2HPO4 buffer. The concentration of the test compound was 1 μM. The microsomes were added to PBS, and the control/test compounds were respectively added to the corresponding reaction systems, mixed thoroughly, and pre-incubated in a 37° C. water bath for 5 minutes. The reaction was initiated by adding 20 mM NADPH solution under 37° C. water bath conditions (for the No NADPH samples, an equal volume of PBS solution was used as a substitute for the 20 mM NADPH solution). At the reaction time points of 0 min, 10 min, 30 mun, 60 min, and 90 min, 30 μL of reaction samples were taken from each reaction system (for the No NADPH samples, sampling was performed at 0 min and 90 min), and the reaction was immediately terminated by adding 300 μL of the internal standard acetonitrile solution. After centrifugation at 4000 rpm, the supernatant was taken and mixed thoroughly with an equal volume of pure water. The samples at each time point were analyzed by LC-MS/MS (AB Triple Quard 5500) to determine the compound content, and the T1/2 was calculated.

Data set [4] in a line: In vitro liver microsome stability, rat. It counts as in vitro ADME. The following applies: liver microsomes, 0.5 mg/mL microsomes, 1 μM compound, NADPH, 37° C., read-out: Rat liver microsomes Half-life T1/2. On the procedure:
as §1
In general terms: Liver microsomes are vesicles of endoplasmic reticulum, rich in cytochrome P450 enzymes.

The nature of data set [5]: In vitro liver microsome stability, mouse. It counts as in vitro ADME. The following applies: liver microsomes, 0.5 mg/mL microsomes, 1 μM compound, NADPH, 37° C., read-out: Mouse liver microsomes Half-life T1/2. On the procedure: as §1
Where [6] appears, read: intravenous injection group 1 mg/kg.
Where [7] appears, read: po, intragastric administration group 5 mg/kg.

What is called clearance is a measure of how efficiently the substance is removed, as volume per time. For orientation: Vd means a proportionality between amount in the body and measured concentration, not a real space. As usually defined, the bioavailability is the share of a dose that reaches the circulation, judged against a reference dose that is usually intravenous.

T3 sequence (Q16539 whole entry): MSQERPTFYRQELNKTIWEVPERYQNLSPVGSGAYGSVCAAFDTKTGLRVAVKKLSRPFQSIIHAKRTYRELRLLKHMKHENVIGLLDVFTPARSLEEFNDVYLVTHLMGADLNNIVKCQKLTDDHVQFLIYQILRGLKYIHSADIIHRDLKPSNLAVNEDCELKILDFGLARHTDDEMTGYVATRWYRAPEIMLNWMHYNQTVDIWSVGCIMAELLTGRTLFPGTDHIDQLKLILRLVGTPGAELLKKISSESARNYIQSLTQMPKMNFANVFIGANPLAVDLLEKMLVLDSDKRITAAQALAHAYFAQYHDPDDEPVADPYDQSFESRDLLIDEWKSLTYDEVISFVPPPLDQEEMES
T1 sequence (Q16539 whole entry): as above
T1 sequence (P49137 whole entry partner): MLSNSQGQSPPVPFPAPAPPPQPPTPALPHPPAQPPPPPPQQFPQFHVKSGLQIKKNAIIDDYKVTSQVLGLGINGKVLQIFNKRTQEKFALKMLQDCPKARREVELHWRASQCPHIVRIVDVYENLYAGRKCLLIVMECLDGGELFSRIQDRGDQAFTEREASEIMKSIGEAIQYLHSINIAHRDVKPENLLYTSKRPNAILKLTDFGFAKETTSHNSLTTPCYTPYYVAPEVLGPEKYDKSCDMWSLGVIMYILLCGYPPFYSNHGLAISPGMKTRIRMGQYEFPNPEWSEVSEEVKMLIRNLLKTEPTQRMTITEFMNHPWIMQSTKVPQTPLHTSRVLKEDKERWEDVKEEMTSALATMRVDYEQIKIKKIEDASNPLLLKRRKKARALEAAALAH

Regarding `Cc1cnc(-c2cccc(C(=O)N(C)C)c2)c(F)c1-n1c(C)cc(OCc2ncc(F)cc2F)c(Cl)c1=O` (single isomer, unassigned) [Compound 32-P1], the IC50 against p38 MAPK/MK2 worked out at 0.51 nM. The molecule also displayed an IC50 on p38 MAPK/ATF2 of 3650 nM. At p38 MAPK/MK5, the IC50 is 1650 nM. Further, in data set [1] (setting [6]), the AUC(0-t) was found to be 842 ng·h/mL, the clearance was 21.1 mL/min/kg, the half-life was 0.35 h and the C0 was 1790 ng/mL. Also, the Vd in data set [1] (setting [6]) turned out to be 0.49 L/kg. In data set [1] (setting [7]), the AUC(0-t) is 2350 ng·h/mL, the bioavailability came to 57.9%, the half-life was 1.54 h and the Cmax was 1610 ng/mL. The IC50 in data set [2] stood at 3.21 nM.
Consider `Cc1cnc(-c2ccc(F)c([C@@](C)(O)CO)c2F)cc1-n1c(C)cc(OCc2ncc(F)cc2F)c(Cl)c1=O` (single isomer, unassigned) [Compound 65-P4], for which the IC50 was 0.59 nM against p38 MAPK/MK2, 4600 nM at p38 MAPK/ATF2, > 20000 nM against p38 MAPK/MK5 and 4.5 nM in data set [2]. The half-life at 1 μM in data set [3], in data set [4] and in data set [5] was > 4.66 h each time.
With `Cc1cnc(-c2cccc(C(=O)O)c2)cc1-n1c(C)cc(OCc2ncc(F)cc2F)c(Cl)c1=O` [Compound 1], the IC50 at p38 MAPK/MK2 was 58.6 nM; against p38 MAPK/ATF2, > 20000 nM; on p38 MAPK/MK5, 6080 nM. Besides, the half-life at 1 μM in data set [3], in data set [4] and in data set [5] was > 4.66 h each time.
Take `CNC(=O)c1cccc(-c2cc(-n3c(C)cc(OCc4ncc(F)cc4F)c(Cl)c3=O)c(C)cn2)c1` [Compound 2]: the IC50 turned out to be 62.4 nM at p38 MAPK/MK2, 10300 nM against p38 MAPK/ATF2, 3050 nM against p38 MAPK/MK5 and 89 nM in data set [2]. Also, the half-life at 1 μM in data set [3] is 4.14 h; in data set [4] it was 4.17 h; in data set [5], 3.96 h.
With `Cc1cnc(-c2cccc(C(N)=O)c2)cc1-n1c(C)cc(OCc2ncc(F)cc2F)c(Cl)c1=O` [Compound 4], the IC50 is 50.5 nM against p38 MAPK/MK2, > 20000 nM on p38 MAPK/ATF2, 6590 nM against p38 MAPK/MK5 and 96.7 nM in data set [2]. Also, the half-life at 1 μM in data set [3] is > 4.66 h; in data set [4], > 4.66 h; in data set [5], 2.93 h.
Take `Cc1cnc(-c2cccc(C(=O)O)c2)c(F)c1-n1c(C)cc(OCc2ncc(F)cc2F)c(Cl)c1=O` [Compound 29-P1]: at p38 MAPK/MK2, the IC50 amounted to 4.86 nM. Moreover, the half-life at 1 μM in data set [3] is > 4.66 h. Besides, the half-life at 1 μM in data set [4] was > 4.66 h. Besides, the IC50 against p38 MAPK/ATF2 was 1150 nM. In data set [1] (setting [6]), the AUC(0-t) worked out at 1390 ng·h/mL, the clearance is 10.4 mL/min/kg, the half-life was 2.57 h and the C0 was 1450 ng/mL. In addition, the Vd in data set [1] (setting [6]) amounted to 1.83 L/kg. For the same molecule, in data set [1] (setting [7]), the AUC(0-t) turned out to be 6490 ng·h/mL, the bioavailability was 80.6%, the half-life was 3.37 h and the Cmax is 1380 ng/mL. In addition, the half-life at 1 μM in data set [5] was > 4.66 h.
`Cc1cnc(-c2cccc([C@@](C)(O)CO)c2F)cc1-n1c(C)cc(OCc2ncc(F)cc2F)c(Cl)c1=O` [Compound 35-P1]: the IC50 at p38 MAPK/MK2 came out at 1.44 nM; against p38 MAPK/MK5, 4670 nM; in data set [2], 1.9 nM. In addition, the half-life at 1 μM in data set [3], in data set [4] and in data set [5] was > 4.66 h in each case.
